The values that follow come from patent publication US9493468B2, “Antifungal 5,6-dihydro-4H-pyrrolo[1,2-a][1,4]benzo-diazepines and 6H-pyrrolo[1,2-a][1,4]benzodiazepines substituted with heterocyclic derivatives” (Janssen Pharmaceutica NV, priority 2011, dated 2016).

Holding throughout (assay type): cell-based
The test system of one experiment is Candida parapsilosis. As to the kind of experiment: Antifungal activity in vitro, resazurin growth inhibition: Candida parapsilosis (B66126). A digest of the protocol: (§1)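 Fungi (10^3 cfu/well) grown in RPMI-1640 with L-glutamine, 2% glucose, MOPS pH 7.0, against 2- or 4-fold compound dilutions up to 64 μM. Dermatophytes incubated one week or more at 27° C. Growth inhibition read fluorimetrically (λex 550, λem 590 nm) after resazurin addition and further incubation.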

In a further experiment the test system is Rhizopus oryzae. Kind of experiment: Antifungal activity in vitro, resazurin growth inhibition: Rhizopus oryzae (IHEM5223). A digest of the protocol:
as §1

In a further experiment the test system is Microsporum canis. Kind of experiment: Antifungal activity in vitro, resazurin growth inhibition: Microsporum canis (B68128). A digest of the protocol: (§2)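 Broth microdilution: RPMI-1640/L-Gln/2% glucose, MOPS pH 7.0±0.1; 10^3 cfu/well; top concentration 64 μM, 2- or 4-fold steps. Dermatophytes at 27° C., one week or more. Resazurin 0.005% (w/v) added, fluorescence 550/590 nm.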

A further experiment deals with Rhizomucor miehei. Kind of experiment: Antifungal activity in vitro, resazurin growth inhibition: Rhizomucor miehei (IHEM13391). A digest of the protocol:
as §1

Another experiment concerns Sporothrix schenkii. Kind of experiment: Antifungal activity in vitro, resazurin growth inhibition: Sporothrix schenkii (B62482). A digest of the protocol:
as §1

The test system of the next experiment is Scedosporium prolificans. As to the kind of experiment: Antifungal activity in vitro, resazurin growth inhibition: Scedosporium prolificans (IHEM21157). A digest of the protocol: as §1
The next experiment has as its system Trichophyton rubrum. As to the kind of experiment: Antifungal activity in vitro, resazurin growth inhibition: Trichophyton rubrum (B68183). A digest of the protocol:
as §2

In another experiment the test system is Scedosporium apiospermum. Kind of experiment: Antifungal activity in vitro, resazurin growth inhibition: Scedosporium apiospermum (IHEM3817). A digest of the protocol:
as §1

Another experiment has as its system Aspergillus fumigatus. As to the kind of experiment: Antifungal activity in vitro, resazurin growth inhibition: Aspergillus fumigatus (B42928). A digest of the protocol: as §1
A further experiment concerns Cryptococcus neoformans. Kind of experiment: Antifungal activity in vitro, resazurin growth inhibition: Cryptococcus neoformans (B66663). A digest of the protocol: as §1
For experiment [1], the system named is Trichophyton mentagrophytes. Kind of experiment: Antifungal activity in vitro, resazurin growth inhibition: Trichophyton mentagrophytes (B70554). A digest of the protocol:
as §2

On to `Clc1cccc2c1CN=C(c1ccc3ccoc3c1)c1cccn1-2` [Compound 150], for which, in the experiment on Candida parapsilosis, the “Inf. D: Candida parapsilosis B66126, pIC50” value (shortened to “Inf. D”) is listed as 4.68. Besides, the “Inf. J: Rhizopus oryzae IHEM5223, pIC50” value in the experiment with Rhizopus oryzae is recorded as under 4.19. The “Inf. B: Microsporum canis B68128, pIC50” value with Microsporum canis is reported as 6.14. For the same molecule, the “Inf. K: Rhizomucor miehei IHEM13391, pIC50” value (“Inf. K” below) in the experiment on Rhizomucor miehei is under 4.19. Also, the “Inf. A: Sporothrix schenkii B62482, pIC50” value with Sporothrix schenkii was determined as 5.52. Besides, the “Inf. I: Scedosporium prolificans IHEM21157, pIC50” value (from here on “Inf. I”) in the experiment on Scedosporium prolificans was found to be 5.93. The “Inf. C: Trichophyton rubrum B68183, pIC50” value (“Inf. C” for short) in the experiment on Trichophyton rubrum is reported as 8.25. Moreover, in the experiment with Scedosporium apiospermum, the “Inf. H: Scedosporium apiospermum IHEM3817, pIC50” value (“Inf. H” for short) is under 4.19. Besides, the “Inf. E: Aspergillus fumigatus B42928, pIC50” value (shortened to “Inf. E”) with Aspergillus fumigatus amounted to 6.00. The “Inf. F: Cryptococcus neoformans B66663, pIC50” value (from here on “Inf. F”) in the experiment on Cryptococcus neoformans is 4.57. Also, the “Inf. G: Trichophyton mentagrophytes B70554, pIC50” value (“Inf. G” for short) in experiment [1] was 6.15.

Take `Clc1cccc2c1CN=C(c1ccc3occ(Cl)c3c1)c1cccn1-2` [Compound 152]: the “Inf. D” value in the experiment with Candida parapsilosis turned out to be 5.59. The “Inf. J: Rhizopus oryzae IHEM5223, pIC50” value with Rhizopus oryzae is under 4.19. Besides, the “Inf. B: Microsporum canis B68128, pIC50” value in the experiment with Microsporum canis is recorded as 6.34. Besides, in the experiment with Rhizomucor miehei, the “Inf. K” value is on record as under 4.19. The “Inf. A: Sporothrix schenkii B62482, pIC50” value in the experiment with Sporothrix schenkii is on record as 5.11. For the same molecule, the “Inf. I” value with Scedosporium prolificans is listed as 5.15. Further, the “Inf. C” value with Trichophyton rubrum was 6.85. The “Inf. H” value in the experiment on Scedosporium apiospermum is reported as 4.28. For the same molecule, the “Inf. E” value in the experiment on Aspergillus fumigatus was 6.26. In addition, the “Inf. F” value in the experiment on Cryptococcus neoformans turned out to be 5.82. Besides, the “Inf. G” value in experiment [1] is recorded as 6.46.

As to `Fc1cc(F)c2c(c1)-n1cccc1C(c1cc3cc(Cl)cnc3o1)=NC2` [Compound 158], in the experiment on Candida parapsilosis, the “Inf. D” value is given as under 4.19. Also, the “Inf. J: Rhizopus oryzae IHEM5223, pIC50” value with Rhizopus oryzae is recorded as under 4.19. Moreover, the “Inf. B: Microsporum canis B68128, pIC50” value with Microsporum canis was found to be 5.70. The “Inf. K” value with Rhizomucor miehei is listed as under 4.19. Further, the “Inf. A: Sporothrix schenkii B62482, pIC50” value in the experiment with Sporothrix schenkii is given as under 4.19. Also, the “Inf. I” value with Scedosporium prolificans worked out at 6.00. Also, in the experiment on Trichophyton rubrum, the “Inf. C” value is reported as 5.72. Also, the “Inf. H” value in the experiment with Scedosporium apiospermum turned out to be 4.37. In addition, the “Inf. E” value with Aspergillus fumigatus is recorded as under 4.19. The “Inf. F” value with Cryptococcus neoformans is listed as 5.20. Moreover, the “Inf. G” value in experiment [1] came out at 5.17.

Regarding `Clc1cccc2c1CN=C(c1cnc3occc3c1)c1cccn1-2` [Compound 161], the “Inf. D” value in the experiment with Candida parapsilosis is on record as under 4.19. In addition, the “Inf. J: Rhizopus oryzae IHEM5223, pIC50” value in the experiment with Rhizopus oryzae is under 4.19. Further, the “Inf. B: Microsporum canis B68128, pIC50” value in the experiment with Microsporum canis is recorded as 5.96. Further, the “Inf. K” value with Rhizomucor miehei was under 4.19. Further, the “Inf. A: Sporothrix schenkii B62482, pIC50” value in the experiment on Sporothrix schenkii came to 5.02. Besides, the “Inf. I” value in the experiment on Scedosporium prolificans came to 6.27. For the same molecule, in the experiment with Trichophyton rubrum, the “Inf. C” value stood at 6.12. In addition, the “Inf. H” value in the experiment with Scedosporium apiospermum is on record as 6.47. Further, the “Inf. E” value with Aspergillus fumigatus was found to be 5.04. In the experiment with Cryptococcus neoformans, the “Inf. F” value is 4.56. Moreover, in experiment [1], the “Inf. G” value is 5.40.

For `c1ccc2c(c1)CN=C(c1cc3ccccc3s1)c1cccn1-2` [Compound 163], the “Inf. D” value in the experiment on Candida parapsilosis is 5.12. The “Inf. J: Rhizopus oryzae IHEM5223, pIC50” value in the experiment on Rhizopus oryzae was found to be 4.98. The “Inf. B: Microsporum canis B68128, pIC50” value in the experiment on Microsporum canis is 6.14. The “Inf. K” value with Rhizomucor miehei turned out to be 5.06. In the experiment with Sporothrix schenkii, the “Inf. A: Sporothrix schenkii B62482, pIC50” value is 5.59. The “Inf. I” value in the experiment with Scedosporium prolificans is recorded as 6.27. Besides, in the experiment on Trichophyton rubrum, the “Inf. C” value is 6.71. Moreover, the “Inf. H” value with Scedosporium apiospermum is 5.63. Besides, the “Inf. E” value in the experiment on Aspergillus fumigatus was found to be 5.61. Also, in the experiment on Cryptococcus neoformans, the “Inf. F” value is 6.51. In addition, the “Inf. G” value in experiment [1] was determined as 5.99.

As to `Cc1cccc2c1-n1cccc1C(c1cc3ccccc3s1)=NC2` [Compound 164], the “Inf. D” value with Candida parapsilosis is on record as 4.97. For the same molecule, the “Inf. J: Rhizopus oryzae IHEM5223, pIC50” value with Rhizopus oryzae is given as under 4.19. Further, the “Inf. B: Microsporum canis B68128, pIC50” value in the experiment with Microsporum canis is listed as 5.86. Moreover, the “Inf. K” value in the experiment on Rhizomucor miehei was 5.15. In the experiment on Sporothrix schenkii, the “Inf. A: Sporothrix schenkii B62482, pIC50” value worked out at 5.40. Further, the “Inf. I” value with Scedosporium prolificans turned out to be 6.44. Besides, the “Inf. C” value in the experiment with Trichophyton rubrum came out at 6.51. Besides, the “Inf. H” value in the experiment with Scedosporium apiospermum is 5.66. Besides, the “Inf. E” value in the experiment on Aspergillus fumigatus turned out to be 5.70. In addition, the “Inf. F” value with Cryptococcus neoformans is 5.85. Besides, the “Inf. G” value in experiment [1] worked out at 6.29.

Regarding `Clc1cccc2c1CN=C(c1cc3ccccc3s1)c1cccn1-2` [Compound 165], in the experiment on Candida parapsilosis, the “Inf. D” value is listed as under 4.19. For the same molecule, the “Inf. J: Rhizopus oryzae IHEM5223, pIC50” value in the experiment on Rhizopus oryzae is reported as under 4.19. For the same molecule, the “Inf. B: Microsporum canis B68128, pIC50” value in the experiment on Microsporum canis came out at 6.19. The “Inf. K” value in the experiment with Rhizomucor miehei is under 4.19. In addition, in the experiment with Sporothrix schenkii, the “Inf. A: Sporothrix schenkii B62482, pIC50” value is on record as 5.12. Besides, the “Inf. I” value with Scedosporium prolificans was determined as 4.46. For the same molecule, the “Inf. C” value in the experiment with Trichophyton rubrum turned out to be 6.70. For the same molecule, the “Inf. H” value with Scedosporium apiospermum is under 4.19. In addition, the “Inf. E” value in the experiment on Aspergillus fumigatus was 5.28. The “Inf. F” value in the experiment on Cryptococcus neoformans was 5.81. In addition, in experiment [1], the “Inf. G” value is listed as 5.86.
